# Test results published in patent US8293726B2, “Treatment of cancer and other diseases” (Vianova Labs, Inc., priority 2005, dated 2012).
# “And” between values parts separate entries of the source, which are not always exact repeats. Equal values may be shown once.
# Columns and labels:
# [1] = tested on: experimentally induced large B-cell lymphoma; experiment: Therapeutic efficacy in mice with experimentally induced large B-cell lymphoma (blood tests, LDH, body weight, autopsy); assay type: in vivo; parameters: Lymphocytes: unit not given here; conditions: for LDH: blood plasma; for Total protein: blood serum; for Lymphocytes: blood
# Description: Investigations were carried out on immunocompromised laboratory mice with experimentally-induced large B-cell lymphoma using hematological, immunological, biochemical, anatomical, and cytological methods. Two groups of 15 mice were employed. In the first group, 24-ethyl-cholestane-3β,5α,6α-triol was administered orally daily at a dosage of 5 mg/kg. The second group served as the control. The following parameters of therapeutic efficacy were compared: dynamics of LDH activity in the blood plasma, content of total protein, and general clinical blood test results.
# As is seen from Table 2, statistically important differences (P<0.05) between animals with lymphoma and healthy animals were marked by the amount of leukocytes, hemoglobin, by color indication, the absolute number of lymphocytes in blood, as well as the content of total protein in the blood serum and the LDH activity in blood plasma. These changes characterize the presence of disorders in the lymphoid component of blood formation, indicate the presence of intensive cytolysis in the process of carcinogenesis (due to increased LDH), and show the presence of processes suppressing biosynthesis of protein.
# The total content of protein in the blood serum and the hemoglobin concentration are increased. At the same time, a decrease in LDH activity in the blood plasma and in the number of lymphocytes was observed (FIG. 5).
# uterine cancer stage IIB = experiment: Patient case: recurrent uterine cancer; assay type: in vivo, human; conditions: 60 mg/day, within three months; recurrent 3.2 cm pelvic mass before
# Text: A patient presented with uterine cancer stage IIB. They previously received cisplatin-based chemotherapy and radiotherapy. […] A cervical biopsy confirms the recurrence. […] Within three months, the tumor had disappeared on clinical exam and abdomino-pelvic CT scan.
# [2] = tested on: left squamous-cell carcinoma of the lung; experiment: Patient case: squamous-cell carcinoma of the lung; assay type: in vivo, human
# Text: A patient with presented with a left squamous-cell carcinoma of the lung. […] Seven months later the patient received radiotherapy to the left lung. […] The patient undergoes a left pneumonectomy and drug therapy is stopped, but the tumor recurs and the patient dies.
# [3] = tested on: breast cancer stage IV with lung and bone metastases; experiment: Patient case: breast cancer stage IV with lung and bone metastases, CA 15-3; assay type: in vivo, human; conditions: for CA 15-3: Femara, Decapeptyl
# Text: A patient presented with breast cancer stage IV with lung and bone metastases. They previously underwent a left radical mastectomy for a stage 2 colloidal mucinous adenocarcinoma Hormone receptors and c-erb B were negative. They received adjuvant chemotherapy (FAC) followed by radiotherapy. Later, a sternal bone metastasis appeared and was resected. […] They also developed lung metastases up to 4 cm size. They received chemotherapy with taxotere, navelbine, and pamidronate, followed by tamoxifen. This treatment gave an almost complete response in the lungs. Tamoxifen was replaced by Femara. The patient received radiotherapy on the spine (T4 and T1 2) and Zometa is administered along with Femara. […] Zometa and Femara were continued and Decapeptyl was added to the treatment.
# [4] = tested on: experimentally induced large B-cell lymphoma; experiment: Therapeutic efficacy in mice with experimentally induced large B-cell lymphoma (blood tests, LDH, body weight, autopsy); assay type: in vivo; conditions: second treated group; M (arithmetic mean of 3 animals)
# [5] = 5 mg/kg orally daily, course of treatment
# [6] = first treated group, M (arithmetic mean of 3 animals)
# [7] = first treated group, individual animals
# [8] = second treated group, M (arithmetic mean of 3 animals)
# [9] = second treated group, individual animals
# [10] = third treated group, M (arithmetic mean of 4 animals)
# [11] = third treated group, individual animals
compound,measurement,setting,value
"CC[C@H](CC[C@@H](C)[C@H]1CC[C@H]2[C@@H]3C[C@H](O)[C@@]4(O)C[C@@H](O)CC[C@]4(C)[C@H]3CC[C@]12C)C(C)C [24-ethyl-cholestane-3β,5α,6α-triol]",hemoglobin concentration,[1]; [5],increased
same,number of lymphocytes,[1]; [5],decrease
same,total content of protein in the blood serum,[1]; [5],increased
same,"autopsy: liver, kidney and spleen tissues, treated animals with lymphoma vs healthy mice","[1]; 5 mg/kg orally daily, sixteen days",no differences
same,LDH,[1]; [6],962.00 U/L
same,LDH,[1]; [7],1056 U/L and 974 U/L and 856 U/L
same,LDH,[1]; [8],749.7 U/L
same,LDH,[1]; [9],698 U/L and 753 U/L and 798 U/L
same,LDH,[1]; [10],673 U/L
same,LDH,[1]; [11],759 U/L and 583 U/L and 697 U/L and 653 U/L
same,Total protein,[1]; [6],53.63 g/L
same,Total protein,[1]; [7],51.5 g/L and 52.6 g/L and 56.8 g/L
same,Total protein,[1]; [8],54.73 g/L
same,Total protein,[1]; [9],52.9 g/L and 54.5 g/L and 56.8 g/L
same,Total protein,[1]; [10],57.625 g/L
same,Total protein,[1]; [11],56.5 g/l (2×) and 57.8 g/l and 59.7 g/l
same,Lymphocytes,[1]; [6],9.15
same,Lymphocytes,[1]; [8],7.523
same,Lymphocytes,[1]; [10],7.464
same,LDH level in some animals,"[1]; by the sixteenth day of treatment, some animals",reached the level of healthy animals
same,"Body, weight","[1]; day 16, treated vs untreated diseased mice",tendency to a gain in mass
same,decrease of LDH activity in blood plasma,"[1]; diseased mice, 5 mg/kg orally daily, by the sixteenth day of treatment",42.3%
same,"Body, weight",[1]; [6],18.04 g
same,neutrophiles/lymphocytes,[1]; [6],0.28
same,"Body, weight",[1]; [7],18.27 g and 17.86 g and 18.00 g
same,"Body, weight",[1]; [8],18.2 g
same,"Body, weight",[1]; [9],18.28 g and 18.36 g and 17.97 g
same,"Body, weight",[1]; [10],18.3775 g
same,neutrophiles/lymphocytes,[1]; [10],0.3255
same,"Body, weight",[1]; [11],18.53 g and 18.12 g and 18.26 g and 18.60 g
same,tumor on clinical exam and abdomino-pelvic CT scan,uterine cancer stage IIB,disappeared
same,general condition,"[2]; 50 mg/day, after commencing therapy",drastic and rapid improvement
same,fibroscopy,[2]; fourteen months after therapy commenced,normal
same,late outcome,[2]; nearly five years after commencement of therapy,recurrence of the left lung tumor
same,left lung opacity,"[2]; nine months after commencing treatment, radiotherapy to the left lung at seven months",significant regression
same,CA 15-3,"[3]; Month 5, 60 mg/day with Zometa, Month 0 prior to treatment 277 (nl < 35)",156 U
same,CA 15-3,"[3]; Month 6, 60 mg/day with Zometa",85 U and 52 U
same,CA 15-3,"[3]; Month 14, 60 mg/day with Zometa",24 U
same,CA 15-3,"[3]; Month 16, 60 mg/day with Zometa",19.5 U
same,symptoms,[3]; two weeks after the beginning of LC,totally asymptomatic
same,neutrophiles/lymphocytes,[4],0.3024
